One data set has as its target murine FAP (Mus musculus (Mouse), UniProt P97321). Description: Inhibition assay of FAP (fluorogenic substrate Z-Gly-Pro-AMC). The conditions noted are these: substrate Z-Gly-Pro-AMC 20 μM; 66 pM murine FAP; room temperature. It counts as biochemical. As for the experimental part:
(§1) Inhibition assay of FAP. The compounds were precisely weighed (range between […]) on a micro-scale (HuberLab, Sartorius QUINTIX35-1S) and dissolved in DMSO to prepare stock solutions at 1 mM. Stock solutions were further diluted with FAP activation buffer (50 mM Tris, 100 mM NaCl, 1 mM EDTA, pH=7.4) to a final DMSO concentration of 10% v/v. 10 μL of each inhibitor were serially diluted in a 384 well plate (grenier-bio one, PS, F-bottom, Black, non-binding) with 10 μL of 10% DMSO FAP buffer (1:1 dilution). FAP (human and murine) was diluted to the desired concentration with FAP activation buffer and added to the serial dilution of inhibitor (10 μL for each well). Each protein-inhibitor solution was incubated for 30 minutes at room temperature. Each measurement was performed with an enzyme concentration (FAP) lower than the expected IC50. A 60 μM solution of substrate (Z-Gly-Pro-AMC) in FAP activation buffer (<1% DMSO) was added to the plate (10 μL for each well). The reaction was incubated from 1 minute to 48 hours (see FIG. 2) at room temperature (22° C.-25° C.). The emission was read at 465 nm (excitation wavelength 360 nm) for 40 μs by Tecan Spark (s.n. 1808004082). The following controls were added to each row: positive control (no inhibitor control, 10 μL of 10% DMSO FAP buffer+10 μL of FAP solution+10 μL of substrate solution), negative control (no protein control, 10 μL of 10% DMSO FAP buffer+10 μL of FAP activation buffer+10 μL of substrate solution).
(§2) Normalization of values: The “% of FAP activity” can be calculated with the following formula:
(§3) FIG. 3: Inhibition assay performed with compounds 1, 2, 3, 4, 5, 6, 8 against a) 66 pM human FAP and b) 66 pM murine FAP. The concentration of substrate (Z-Gly-Pro-AMC) was kept constant=20 μM. The assay was incubated for 48 hours at 22.6° C. Error bars display SEM.
(§4) FIG. 4: a) Inhibition assay performed with compounds 8, 9 and 10 against 66 pM human FAP. The assay was incubated for 17 hours at 25° C. b) Inhibition assay performed with compound 9 against 66 pM murine FAP. The assay was incubated for 17 hours at 25° C. In both assays the concentration of substrate (Z-Gly-Pro-AMC) was kept constant=20 μM. Error bars display SEM.

For a further data set, the target named is human FAP (Homo sapiens (Human), UniProt Q12884). The data set is described as above. Type of data set: biochemical. As for the experimental part:
as §1, §2
The concentration of substrate (Z-Gly-Pro-AMC) was kept constant=20 μM. Dashed lines corresponds to sets of data with unstable fitting. […] Error bars display SEM.
as §3, §4
FIG. 19. A: Chemical structures and corresponding IC50(hFAP) values of compounds according to the present invention. B: Chemical structures and corresponding IC50 values of compounds where the propargyl moiety at position AA^2 was replaced by different groups (Me, iPr, Bn) using both R and S stereoisomers. The sites of modification have been highlighted with arrows. Each measurement was performed with a FAP concentration lower than the expected IC50. Depending on FAP concentration, the fluorescence was measured between 10 minutes and 48 h (at room temperature) after the addition of the fluorogenic substrate (Z-Gly-Pro-AMC). IC50 values and standard errors were calculated using “[Inhibitor] vs. response—Variable slope (four parameters)” fitting (Graphpad Prism). […] By introducing the quinoline-based moiety, a single-digit nanomolar inhibitor was obtained. […] The replacement of propargylglycine with S-phenylalanine improved potency of the lead compound of additional ˜2-folds (compound 14).

The nature of the next data set: Serum stability. Conditions: mouse, in vitro, time points 0 to 48 h. Type of data set: in vitro ADME. As for the experimental part:
In two separate Eppendorf, 4 μL of compound 28 and 38 (1 mM solution in DMSO) and 36 μL of serum for each time point were mixed. After each specific time point, 40 μL of mixture were freezed in liquid nitrogen and then stored at −20° C. Once all the samples were collected, samples were defrosted at 24° C. and 300 μL of ACN were added. The samples were then centrifuged at 10′000 RPM for 5 minutes. 200 μL of the supernatant were transferred to a second Eppendorf tube and dried under vacuum for 2 h. The residue was carefully resuspended in 30 μL of mQ Water:acetonitrile=9:1 mixture (with 0.1% v/v of formic acid) and analysed by LC-MS. Each time point was performed in triplicate. The percentage of intact […] was determined extracting the area of the UV peak. The obtained values were normalized on the average area at time point corresponding to 0 hours.

The next data set concerns SK-RC-52.hFAP cells. Description: Confocal microscopy on living cells. Type of data set: cell-based. Conditions: 150 nM; imaged 1 h after incubation. As for the experimental part:
SK—RC-52.hFAP and SK—RC-52.wt cells were seeded into g-Slide 8 Well high Glass Bottom at a density of 5×10^4 cells per well in 300 μL of RPMI medium supplemented with 10% fetal calf serum (FCS), AA, and Hepes (10 mM) and allowed to grow overnight under standard culture conditions. Hoechst 33342 nuclear dye was used to stain nuclear structures. The culture medium was replaced with fresh medium containing either compound 36 or 29 (150 nM). Randomly selected colonies were imaged 1 h after incubation on the confocal microscope Zeiss LSM 880 airyscan (Zeiss). Fiji was used for the data processing and visualization.

Data set [1] concerns FAP positive SKRC-52.hFAP. Description: Flow cytometry (FACS) binding. It counts as cell-based. The conditions noted are these: 100 nM; 1 h on ice. As for the experimental part:
(§5) Cells were detached from culture plates using Accutase cell detachment solution, counted and suspended to a final concentration of 1.25×10≢cell/100 μL in a solution of FACS buffer (1% bovine serum albumin, 2 mM EDTA, in 500 mL PBS pH 7.4). Aliquots of 2.5×10≡cells (200 μL) were spun down and resuspended in solutions of compound 36 and compound 29 (100 μL; 100 nM) in FACS buffer and incubated on ice in the dark for 1 h. Cells were washed once with 200 μl FACS (1% v/v)/PBS (pH=7.4), spun down, resuspended in a solution of FACS buffer and analyzed via a BD LSRFortessa™ Cell Analyzer (Biosciences). FlowJo Version 8.7 (Treestar) was used for the data analysis and visualization.
On the technique in general: Flow cytometry measures light scatter and fluorescence of single cells or particles in a stream.

A further data set deals with FAP negative SKRC-52.wt. Description: Flow cytometry (FACS) binding. It counts as cell-based. The conditions noted are these: 100 nM; 1 h on ice. As for the experimental part: as §5
[2] abbreviates: substrate Z-Gly-Pro-AMC 20 μM, FAP concentration lower than expected IC50 (66 pM in FIG. 3, 4), room temperature, read-out: IC50 vs human FAP.

Entries after “also recorded” stand apart in the source; their conditions may differ. Read-outs that look alike come from different tables or passages of the source. Bounds are passed on as bounds.

The results in this text go back to patent publication US20250177582A1, “HIGH-AFFINITY LIGANDS OF FIBROBLAST ACTIVATION PROTEIN FOR TARGETED DELIVERY APPLICATIONS” (PHILOCHEM AG, priority 2022, published 2025).

Chain of human FAP (Q12884 whole entry): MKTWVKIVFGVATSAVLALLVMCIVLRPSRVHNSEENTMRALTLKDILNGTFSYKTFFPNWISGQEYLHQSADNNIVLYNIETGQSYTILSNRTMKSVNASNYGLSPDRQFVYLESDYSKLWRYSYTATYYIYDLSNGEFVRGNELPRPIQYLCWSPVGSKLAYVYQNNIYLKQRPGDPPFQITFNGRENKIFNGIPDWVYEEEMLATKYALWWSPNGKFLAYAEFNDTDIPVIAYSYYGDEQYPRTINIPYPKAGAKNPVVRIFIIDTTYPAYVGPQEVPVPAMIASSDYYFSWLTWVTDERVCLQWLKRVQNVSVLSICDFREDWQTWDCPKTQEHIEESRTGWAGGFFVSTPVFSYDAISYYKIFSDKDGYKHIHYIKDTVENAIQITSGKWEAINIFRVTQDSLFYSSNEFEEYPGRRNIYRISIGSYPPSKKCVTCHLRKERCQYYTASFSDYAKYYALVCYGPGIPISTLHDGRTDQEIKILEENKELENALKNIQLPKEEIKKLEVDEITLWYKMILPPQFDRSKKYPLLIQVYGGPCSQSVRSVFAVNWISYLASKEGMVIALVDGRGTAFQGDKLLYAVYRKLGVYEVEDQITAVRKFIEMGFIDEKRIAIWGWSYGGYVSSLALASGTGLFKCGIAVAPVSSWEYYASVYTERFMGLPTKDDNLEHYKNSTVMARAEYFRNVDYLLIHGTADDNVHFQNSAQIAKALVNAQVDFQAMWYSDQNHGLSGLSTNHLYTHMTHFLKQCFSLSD
Chain of murine FAP (P97321 whole entry): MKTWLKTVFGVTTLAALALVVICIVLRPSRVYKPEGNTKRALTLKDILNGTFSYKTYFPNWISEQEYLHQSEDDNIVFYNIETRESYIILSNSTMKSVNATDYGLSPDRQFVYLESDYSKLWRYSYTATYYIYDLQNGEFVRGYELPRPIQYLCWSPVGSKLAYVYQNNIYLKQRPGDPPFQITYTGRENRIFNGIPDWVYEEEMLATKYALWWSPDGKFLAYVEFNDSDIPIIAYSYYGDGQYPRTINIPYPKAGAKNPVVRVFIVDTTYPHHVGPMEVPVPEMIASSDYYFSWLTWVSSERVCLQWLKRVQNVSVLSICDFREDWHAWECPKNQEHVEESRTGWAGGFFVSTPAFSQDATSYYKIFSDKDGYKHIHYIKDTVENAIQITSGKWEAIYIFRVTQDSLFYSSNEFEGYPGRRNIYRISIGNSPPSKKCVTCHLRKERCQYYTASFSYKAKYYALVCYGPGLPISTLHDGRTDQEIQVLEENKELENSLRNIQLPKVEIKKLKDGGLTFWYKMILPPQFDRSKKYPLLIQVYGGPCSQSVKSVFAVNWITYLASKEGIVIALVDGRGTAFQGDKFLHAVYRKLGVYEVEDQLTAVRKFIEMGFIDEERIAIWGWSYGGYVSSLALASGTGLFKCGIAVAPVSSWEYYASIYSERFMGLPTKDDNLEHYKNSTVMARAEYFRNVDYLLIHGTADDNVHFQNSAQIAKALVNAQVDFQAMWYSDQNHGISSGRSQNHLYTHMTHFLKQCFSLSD

A word on the IC50: it is the concentration that gives 50% inhibition. One may read the half-life as the time needed for the level to fall by half in the phase considered. For the compound `CN(C)C(=N)NCCCC(NC(=O)CCC(=O)Nc1cccc2c(C(=O)NCC(=O)N3CC(F)(F)C[C@H]3C#N)ccnc12)C(=O)N[C@@H](Cc1ccccc1)C(=O)NCCNC(=O)CCC(C(=O)O)N1CCN(CC(=O)O)CCN(CC(=O)O)CCN(CC(=O)O)CC1` (stereo in doubt) [Compound 28], the IC50 against murine FAP worked out at 0.00479 nM; at human FAP (setting [2]) it was 0.03 nM. This compound also registered a half-life at 100 µM in “Serum stability” above 48 h.
On to `N#C[C@@H]1CC(F)(F)CN1C(=O)CNC(=O)c1ccnc2c(NC(=O)CCC(=O)O)cccc12` [Compound 8, (S)-4-((4-((2-(2-cyano-4,4-difluoropyrrolidin-1-yl)-2-oxoethyl)carbamoyl)quinolin-8-yl)amino)-4-oxobutanoic acid, reference compound], for which the concentration for half-maximal inhibition (IC50) against murine FAP is 16.1 nM; at human FAP (22.6° C., [hFAP] 2.5 nM to 39 pM, substrate 20 μM, read-out: IC50 values from fitted curves, inhibition assay performed overtime) it was 6 to 21 nM; at human FAP (setting [2]) it was 10.9 nM.
As to `C#CC[C@H](NC(=O)[C@H](CCCNC(=N)N(C)C)NC(=O)CCC(=O)Nc1cccc2c(C(=O)NCC(=O)N3CC(F)(F)C[C@H]3C#N)ccnc12)C(=O)N[C@@H](CCCCN)C(=O)O` [Compound 9], the values for the half-maximal inhibitory concentration (IC50) at murine FAP and on human FAP (setting [2]) were 0.115 nM and 0.439 nM, respectively. Besides, on human FAP (SAR comparison), the “FAP inhibition potency (in words)” value is on record as “sub-nanomolar range; also recorded: increased strongly”.
In the case of `CN(C)C(=N)NCCC[C@H](NC(=O)CCC(=O)Nc1cccc2c(C(=O)NCC(=O)N3CC(F)(F)C[C@H]3C#N)ccnc12)C(=O)N[C@@H](Cc1ccccc1)C(=O)NCCNC(=S)Nc1ccc2c(c1)C(=O)OC21c2ccc(O)cc2Oc2cc(O)ccc21` [Compound 29], in the data set on SK-RC-52.hFAP cells, the “internalization, confocal microscopy” value is given as “Internalization was not observed” and the “staining pattern, confocal microscopy” value was “Membrane-specific staining”. The “staining of FAP-positive cells, flow cytometry” value in data set [1] is “stained”. For the same compound, the “binding on wild-type (FAP-negative) cells, flow cytometry” value in the data set on FAP negative SKRC-52.wt is reported as “no binding”.
For `C#CC[C@H](NC(=O)[C@H](CCCNC(=N)N(C)C)NC(=O)c1coc(CNC(=O)CCC(=O)N2CC(F)(F)C[C@H]2C#N)c1)C(=O)N[C@@H](CCCCNC(=S)Nc1ccc2c(c1)C(=O)OC21c2ccc(O)cc2Oc2cc(O)ccc21)C(=O)O` [Compound 36], in that order: “Internalization was not observed”, “Membrane-specific staining”, “stained” and “no binding”.
